The source made the active and inactive calls. No cut-off for these calls is given here.
Tests used:
Plasmodium falciparum [1] = assay: Antimalarial activity against Plasmodium falciparum infected in mouse assessed as parasitemia at 100 mg/kg, ip, qd administered 5 days post infection for 3 days measured after 6 days (Rvb =8.3+/-1.3 %); type: functional
Plasmodium falciparum [2] = assay: Antimalarial activity against Plasmodium falciparum infected in mouse assessed as parasitemia at 20 mg/kg, ip, qd administered 5 days post infection for 3 days measured after 6 days (Rvb =8.3+/-1.3 %); type: functional
Plasmodium falciparum [3] = assay: Antimalarial activity against Plasmodium falciparum infected in mouse assessed as mouse survival at 100 mg/kg, ip, qd administered 5 days post infection for 3 days measured after 6 days relative to control; type: functional, organism-based; design: dose 100 mg/kg
Plasmodium falciparum [4] = assay: Antimalarial activity against Plasmodium falciparum infected in mouse assessed as mouse survival at 20 mg/kg, ip, qd administered 5 days post infection for 3 days measured after 6 days relative to control; type: functional, organism-based; design: dose 20 mg/kg
Plasmodium falciparum [5] = assay: Antimalarial activity against Plasmodium falciparum infected in mouse assessed as parasitemia at 40 mg/kg, ip, qd administered 3 days post infection for 6 days measured after 6 days (Rvb =8.0+/-1.6 %); type: functional
Plasmodium falciparum [6] = assay: Antimalarial activity against Plasmodium falciparum infected in mouse assessed as mouse survival at 40 mg/kg, ip, qd administered 3 days post infection for 6 days measured after 6 days relative to control; type: functional, organism-based; design: dose 40 mg/kg
Plasmodium falciparum [7] = assay: Antimalarial activity against Plasmodium falciparum infected in mouse assessed as mouse survival at 40 mg/kg, ip, qd administered 5 days post infection for 3 days measured after 6 days relative to control; type: functional, organism-based; design: dose 40 mg/kg
Plasmodium falciparum [8] = assay: Antimalarial activity against Plasmodium falciparum infected in mouse assessed as parasitemia at 40 mg/kg, ip, qd administered 5 days post infection for 3 days measured after 6 days (Rvb =9.9+/-2.2 %); type: functional
Plasmodium falciparum [9] = assay: Antimalarial activity against Plasmodium falciparum infected in mouse assessed as mouse survival at 200 mg/kg, ip, qd administered 5 days post infection for 3 days measured after 6 days relative to control; type: functional, organism-based; design: dose 200 mg/kg
Plasmodium falciparum [10] = assay: Antimalarial activity against Plasmodium falciparum infected in mouse assessed as parasitemia at 200 mg/kg, ip, qd administered 5 days post infection for 3 days measured after 6 days (Rvb =9.9+/-2.2 %); type: functional
Plasmodium falciparum [11] = assay: Antimalarial activity against Plasmodium falciparum infected in mouse assessed as parasitemia at 20 mg/kg, ip, qd administered 4 days post infection for 3 days measured after 6 days (Rvb =8.7+/-1.4 %); type: functional
Plasmodium falciparum [12] = assay: Antimalarial activity against Plasmodium falciparum infected in mouse assessed as mouse survival at 20 mg/kg, ip, qd administered 4 days post infection for 3 days measured after 6 days relative to control; type: functional, organism-based; design: dose 20 mg/kg

For CC(C)n1c(/C=C/C(O)CC(O)CC(=O)O)c(-c2ccc(F)cc2)c2ccccc21 (configuration not stated) [FLUVASTATIN], the Activity (Plasmodium falciparum [1]) was 7.4%, the Activity (Plasmodium falciparum [2]) was 7.4% and the Survival (Plasmodium falciparum [3]) was “inactive”. For the same compound, the Survival (Plasmodium falciparum [4]) was “inactive”.

With CCC(C)(C)C(=O)O[C@H]1C[C@@H](C)C=C2C=C[C@H](C)[C@H](CC[C@@H]3C[C@@H](O)CC(=O)O3)[C@H]21 [SIMVASTATIN] the Activity (Plasmodium falciparum [5]) was 8.5% and the Survival (Plasmodium falciparum [6]) was “inactive”.

In the case of CC[C@H](C)C(=O)O[C@H]1C[C@H](O)C=C2C=C[C@H](C)[C@H](CC[C@@H](O)C[C@@H](O)CC(=O)O)[C@H]21 [PRAVASTATIN], the Survival (Plasmodium falciparum [7]) is reported as “inactive”, the Activity (Plasmodium falciparum [8]) is reported as 11.5% and the Survival (Plasmodium falciparum [9]) is reported as “inactive”. The Activity (Plasmodium falciparum [10]) was 11.8%.

In the case of CC(C)c1c(C(=O)Nc2ccccc2)c(-c2ccccc2)c(-c2ccc(F)cc2)n1CC[C@@H](O)C[C@@H](O)CC(=O)O [ATORVASTATIN], the Activity (Plasmodium falciparum [11]) is reported as 9.5% and the Survival (Plasmodium falciparum [12]) is reported as “inactive”.

— ChEMBL document CHEMBL1671634, “Statins alone are ineffective in cerebral malaria but potentiate artesunate” (2008)
